Drawing on PubChem BioAssay (NCI), this text covers TGI and GI50 for 23 compounds.

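Each compound was tested at five concentrations against cells in 96-well plates for 48 hours. GI50 is the concentration that inhibits growth by half. TGI: total growth inhibition.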 Where a SMILES comes first, the peptide text is derived from it. The star is where a group is joined. Cbz = O=C(OCc1ccccc1)*; NHNH2 = NN* Some results are limits rather than exact numbers.

Holding throughout (experiment): growth of human tumour cells (NCI), 48 h
Assay [1] deals with T-47D breast.
The test system of assay [2] is ACHN renal.
Assay [3] concerns MALME-3M melanoma.
In assay [4] the test system is OVCAR-4 ovarian.
The test system of assay [5] is MDA-MB-231 breast.
Assay [6] relates to SW-620 colon.
For assay [7], the system named is HT29 colon.
The subject of assay [8] is K-562 leukemia.
The subject of assay [9] is SN12C renal.
The subject of assay [10] is RXF 393 renal.

On to `O=C1CSC2=NC3=C(CSC/C3=C\c3ccccc3)C(c3ccccc3)N12` (stereo not drawn), for which the TGI in assay [1], in assay [2], in assay [3], in assay [4], in assay [5] and in [6] was > 100 µM throughout. Further, the TGI in assay [7], in assay [8] and in assay [9] was > 100 µM in each case.

On to `CC1C2=C(CCCC2=O)N(c2ccc(Cl)cc2)C2=C1C(=O)CCC2`, for which the TGI in [10] was 78.4 µM; in [2], > 100 µM; in [4], > 100 µM; in [6] it was > 100 µM; in assay [7], > 100 µM; in assay [8], > 100 µM. In addition, the TGI in assay [9] is > 100 µM.

Consider `O=c1[nH]c(=O)n(C2CC(O)C(CO)O2)cc1C#Cc1ccc(F)cc1` (stereo not drawn), for which the TGI in [2], in [3], in assay [4], in assay [6], in [7] and in assay [8] was > 100 µM each time. For the same compound, the TGI in [9] is > 100 µM.

Take `C=CCOc1ccccc1C1(O)c2ccccc2C2=NCCCN21` (stereo not drawn): the TGI in assay [1] was > 100 µM; in assay [2] it was 83.9 µM; in assay [4], > 100 µM; in [5] it was > 100 µM; in assay [6], > 100 µM; in assay [7], 36.2 µM. The TGI in assay [8] and in [9] was > 100 µM throughout.

Turning to `COc1ccc2[nH]c3c(C)cc([N+](=O)[O-])c(C)c3c2c1`, the TGI in [10] was 41.9 µM; in [2] it was 63.1 µM; in assay [3], 73.4 µM; in [4], > 100 µM; in assay [6] it was > 100 µM; in assay [7] it was 83.8 µM. The TGI in assay [8] was 44.3 µM; in [9], > 100 µM.

With `N#Cc1c(-c2ccc(Cl)cc2)c2c(N=Nc3c(O)ccc4ccccc34)[nH]nc2[nH]c1=O`, the TGI in assay [10] was 0.878 µM; in [2], 0.492 µM; in assay [3], 0.944 µM; in assay [4], 3.68 µM; in assay [5] it was 1.08 µM; in [6], 2.31 µM. The TGI in assay [7] was 1.87 µM; in assay [8] it was > 20.7 µM; in assay [9], 2.05 µM.

In the case of `OC12c3ccccc3C3CCC4(OCCO4)C3C1c1ccccc12` (stereo not drawn), the TGI in assay [10], in assay [2], in assay [3], in assay [4], in assay [6] and in assay [7] was > 100 µM each time. The TGI in assay [8] and in assay [9] was > 100 µM each time.

As to `Cc1ccc(S(=O)(=O)N/N=C2/CC3CCC4CC2CC34)cc1` (stereo not drawn), the TGI in [1], in assay [2], in assay [3], in [5], in [6] and in [7] was > 100 µM each time. Besides, the TGI in [8] and in [9] was > 100 µM throughout.

In the case of `CC(CN(C)C)C(=O)c1ccccc1` (stereo not drawn), the TGI was > 54.2 µM in [10]; > 56.5 µM in assay [2]; > 61.1 µM in assay [3]; > 55.5 µM in [4]; 27 µM in assay [6]; 41.3 µM in [7]. Besides, the TGI is > 100 µM in assay [8] and 33.8 µM in assay [9].

For the compound `CCOC(=O)CCC(NC(=O)OCc1ccccc1)C(=O)NC(CCC(=O)OCC)C(=O)NN` (stereo not drawn) (Cbz-Glu(OEt)-Glu(OEt)-NHNH2; configuration not given here), the TGI in [2], in assay [3], in [5], in assay [6], in assay [7] and in assay [8] was > 100 µM in each case. Also, the TGI in assay [9] is > 100 µM.

As to `NC(=Nc1cccc(Cl)c1)c1ccccc1N`, the TGI in assay [10], in [2], in assay [3], in [4], in assay [5] and in assay [6] was > 100 µM in each case. The TGI in assay [7] and in assay [8] was > 100 µM each time.

Turning to `COc1ccc(C(=O)N/N=C/c2c(C)n(C)n(-c3ccccc3)c2=O)cc1`, the TGI in assay [10], in [2], in assay [3], in assay [4], in assay [6] and in [7] was > 100 µM throughout. Further, the TGI in assay [8] and in assay [9] was > 100 µM throughout.

In the case of `COc1nc2c(c(=O)n1C)N=C(c1ccc(Cl)cc1)CC(c1ccccc1)N2` (stereo not drawn), the TGI in assay [10] is 55 µM; in assay [2], 54 µM; in [4] it was 48.5 µM; in assay [5], 53.7 µM; in assay [6], > 100 µM; in [7] it was 47.4 µM. The TGI in assay [8] turned out to be 54.2 µM; in [9] it was 54.4 µM.

In the case of `O=C(OC/C=C1C=C(OC(=O)c2ccccc2)/C(=N/N(C(=O)c2ccccc2)c2ccccc2)O\1)c1ccccc1`, the TGI in [10] was 5.58 µM; in assay [2], 22.5 µM; in assay [4], 22.1 µM; in assay [6], 22.5 µM; in assay [7], 41.5 µM; in assay [8], 11.8 µM. For the same compound, the TGI in assay [9] is 22.7 µM. Moreover, in assay [7], the GI50 is 19.8 µM.

Take `CCCN(CCC)c1c([N+](=O)[O-])cc(C(=O)N(CCO)CCO)cc1[N+](=O)[O-]`: the TGI in assay [2], in [3], in assay [4], in assay [7], in assay [8] and in assay [9] was > 100 µM in each case.

In the case of `CCOC(=O)C1([Se]c2ccccc2)CCCC1=O` (stereo not drawn), the TGI in assay [10] is 21.3 µM; in assay [2], 43.2 µM; in [3] it was > 100 µM; in [4], 36.8 µM; in [7], > 100 µM; in assay [8], > 100 µM. The compound further gave a TGI in assay [9] of 30.5 µM.

For `COc1ccc2c(c1)c(=O)c1c(NCCN(C)C)ccc3nnn2c31`, the TGI in [10] was 10.5 µM; in [2], 14.6 µM; in assay [3], 17.2 µM; in assay [4], 8.17 µM; in assay [6], 9.11 µM; in assay [7], 12.3 µM. For the same compound, the TGI amounted to 15.5 µM in assay [8] and 19.7 µM in assay [9].

Take `CO[C@@H]1C[C@H](OC(N)=O)[C@@H]2C=C[C@@H]3/C=C(C)/C=C/[C@@H](C)[C@H](/C(C)=C/[C@@H](C)NC(C)=O)OC(=O)/C=C/C=C(C)\C=C\[C@]3(C)[C@@H]2C1`: the TGI in [10] stood at 0.455 µM; in assay [1], 2.98 µM; in [2], 0.613 µM; in assay [3] it was 0.798 µM; in assay [4], 11.4 µM; in [6], 1.24 µM. The results for the TGI in assay [7], in assay [8] and in [9] were 0.278 µM, 8.38 µM and 1.67 µM, respectively.

As to `CSCCCNC(=O)c1csc(-c2csc(CCNC(=O)CNC(=O)CNC(=O)OC(C)(C)C)n2)n1`, the TGI in [10], in [2], in assay [3], in assay [4], in assay [5] and in assay [6] was > 100 µM each time. Moreover, the TGI in [7], in assay [8] and in [9] was > 100 µM throughout.

With `CC(=O)N(O)Cc1ccccc1`, the TGI in [10], in [2], in [3], in assay [4], in [6] and in [7] was > 100 µM in each case. Further, the TGI in [8] and in [9] was > 100 µM in each case.

Take `C(=Nc1ccc(-c2nc3ccccc3[nH]2)cc1)c1ccco1`: the TGI in [10], in assay [1], in assay [2], in [3], in [4] and in assay [6] was > 100 µM in each case. Further, the TGI in assay [7], in [8] and in assay [9] was > 100 µM each time.

With `C#CC1(O)CCC2[C@@H]3CCc4cc(Oc5nc(F)nc(-c6c7ccccc7cn6C)n5)ccc4C3CC[C@@]21C` (stereo partly drawn), the TGI in [10], in assay [2], in assay [3], in assay [4], in [6] and in [7] was > 100 µM each time. In addition, the TGI in [8] and in [9] was > 100 µM in each case.

Consider `COc1ccc2nc3n(c2c1)C(=O)c1ccccc1-3`, for which the TGI in [10], in assay [2], in assay [3], in assay [4], in assay [6] and in assay [7] was > 100 µM throughout. Besides, the TGI in [8] and in assay [9] was > 100 µM in each case.
